Assays:
[1] = system: MCF-7 cells; settings: on MCF-7; cited from earlier work
[2] = system: MCF-7 cells; experiment: MTT cell viability assay, MCF-7; assay type: cell-based, human; settings: for IC50: Homo sapiens, MCF7, MCF-7, MTT
Description: (§1) Promyelocytic leukemia HL60, hepatoblastoma HepG2, breast cancer MCF-7 and MDA-MB-231 cells were purchased from ATCC (USA) and cultured in RPMI-1640 media (Sigma, USA), supplemented with 10% fetal bovine serum (FBS) (PAA, USA). Normal epithelial MCF-10A cells (ATCC, USA) was maintain in DMEM-F12 (Sigma, USA) supplemented with hydrocortisone (0.5 μg/mL), insulin (10 μg/mL), human epidermal growth factor (hEGF) (20 ng/mL) (Sigma, USA) and 10% FBS (PAA, USA).
(§2) MTT cell viability assay was used to evaluate the effect of DK1 on viability of HL-60, HepG2, MCF-7, MDA-MB-231 and MCF-10A cells. Briefly, each type of cells (8 × 10^4cells/well) was seeded in 96-well plate in 37 °C CO2 incubator overnight. Then, DK1 was added at concentration ranging between 200 and 3.125 µM by twofold serial dilution. Untreated control was prepared simultaneously. After that, the cells were incubated for 24, 48 and 72 h at 37 °C in 5% CO2 incubator. After the incubation period, all well was added with 20 μL of MTT solution (5 mg/mL) and further incubated for 3 h. Subsequently, 170 μL of supernatant from each well was discarded, 100 μL of dimethyl sulfoxide (DMSO) was added to solubilize the purple formazan crystal and the absorbance was measured at a wavelength of 570 nm by Enzyme-linked immunosorbent assay (ELISA) plate reader (Bio-tek instruments, USA). All cell lines were assayed for three biological replicates each with triplicates. Percentage of cell viability was calculated using the following formula: Cell viability%=OD sample/OD control×100%
(§3) IC50 value (concentration of DK1 that reduce 50% of cell viability compared to control cell) was determined from the graph of cell viability (%) vs DK1 concentration. Subsequently, selective index, which indicating selectivity of DK1 against cancerous and normal breast cell lines, was calculated by: Selective indexSI=IC50of DK1on normal MCF-10A cell line/IC50on breast cancerous cell lineHL60/HepG2/MCF-7/MDA-MB-231

[3] = system: CDC2 and phospho-CDC2 (Tyr15) in MCF-7 cells; experiment: Western blot analysis of CDC2 and p-CDC2 (Tyr15); assay type: cell-based, human; settings: MCF-7, 25 µM, 48 and 72 h
Description: (§4) Total protein was extracted from harvested cell with Radioimmunoprecipitation assay (RIPA) buffer supplemented with phosphatase inhibitor cocktail (Roche, Canada) and the concentration was quantified by Bradford assay (Sigma, USA). Then, 100 μg of extracted protein was subjected to sodium dodecyl sulfate polyacrylamide gel electrophoresis (SDS-PAGE) (Bio-Rad, USA), transferred to nitrocellulose membrane, block with 0.5% skimmed milk overnight, washed with Tris-buffered saline tween (TBST) buffer and incubated with primary antibodies (anti-CDC2, anti-pCDC2 (Tyr15), anti-p53, and anti-β-actin at a dilution of 1:1000 (Abcam, USA) for 1 h. After that, membranes were washed, incubated with 1:5000 diluted goat anti-rabbit IgG H&L conjugated to […] (Abcam, USA) and developed under chemiluminescence condition (Super Signal West Pico, Pierce, USA) using the ChemiDoc XRS (Bio-Rad, USA). Differential level of evaluated protein in control and DK1 treated MCF-7 was calculated based on the bands intensity analyzed using the Quantity One 1D Analysis software (Bio-rad, USA).

[4] = system: MCF-10A cells; experiment: MTT cell viability assay, normal MCF-10A; assay type: cell-based; settings: Homo sapiens
Description: as §1, §2, §3

[5] = system: MCF-7 cells; experiment: Fluorescent microscopy with acridine orange/propidium iodide staining, count of 200 cells; assay type: cell-based, human; settings: MCF-7, 25 µM, 72 h, AO/PI, scoring of 200 cells
Description: Prior to harvest the cell, morphology of control and DK1 treated MCF-7 was observed using light microscope. In addition, harvested control and treated MCF-7 cells were resuspended in 100 μL of Phosphate buffer saline (PBS), stained with 10 μg/mL of Acridine orange (AO) and propidium iodide (PI) and viewed under fluorescent microscope (Nikon, Japan).

[6] = system: active caspase 9 in MCF-7 cells; experiment: Active caspase 9 staining (CaspGLOW), fluorometry; assay type: cell-based, human; settings: MCF-7, 25 µM
Description: (§5) The level of active caspase 9 and cytochrome c of the control and DK1 treated MCF-7 were quantified using CaspGLOW Red Active Caspase-9 staining kit (BioVision, USA) and human cytochrome c platinum ELISA (eBioscience Affymetrix, USA), respectively according to manufacturers’ protocol. Fold change of caspase 9 and cytochrome c was calculated by dividing fluorescence intensity or absorbance of DK1 treated MCF-7 with untreated control MCF-7.

[7] = system: MCF-7 cells; experiment: Flow cytometry AnnexinV-FITC/PI apoptosis analysis; assay type: cell-based, human; settings: MCF-7, 25 µM, 72 h, AnnexinV/PI
Description: Apoptosis of DK1 treated MCF-7 was compared with the control cell by Flow cytometry AnnexinV-FITC/PI apoptosis assay. Briefly, harvested cells were resuspended in 100 μL of 1× binding buffer and stained with 5 μL each of AnnexinV-FITC and propidiumiodide. After 15 min of incubation, the cells were added with 400 μL of 1× binding buffer and subjected to BD FACS Calibur flow cytometer analysis using BD Cell Quest Pro software (Becton–Dickinson, USA).

[8] = system: HepG2 cells; experiment: MTT cell viability assay, HepG2; assay type: cell-based; settings: Homo sapiens
Description: as §1, §2, §3

[9] = system: p53 in MCF-7 cells; experiment: Western blot analysis of p53; assay type: cell-based, human; settings: MCF-7, 25 µM, western blot
Description: as §4

[10] = system: MDA-MB-231 cells; experiment: MTT cell viability assay, MDA-MB-231; assay type: cell-based, human; settings: for IC50: Homo sapiens, MDA-MB-231, MTT
Description: as §1, §2, §3

[11] = system: MCF-7 cells; experiment: Flow cytometry cell cycle analysis (PI); assay type: cell-based, human; settings: MCF-7, 25 µM
Description: Cell cycle progression of control and DK1 treated MCF-7 was analysed using BD FACS Calibur flow cytometer (Becton–Dickinson, USA). Briefly, harvested cells were added with 250 μL of trypsin buffer with 10 min incubation, followed by 200 μL of trypsin inhibitor with RNase buffer with 10 min incubation, and finally stained with 200 μL of propidium iodide (PI) from BD Cycletest Plus kit (Becton–Dickinson, USA). All stained cells were subjected to BD FACS Calibur flow cytometer analysis using BD Cell Quest Pro software (Becton–Dickinson, USA).

[12] = system: ROS in MCF-7 cells; experiment: Intracellular reactive oxygen species (ROS) detection, DCFH-DA; assay type: cell-based, human; settings: MCF-7, 25 µM
Description: (§6) Harvested cell was subjected to two times of freeze and thaw in 100 μL of PBS. The lysed cell was then pelleted and the supernatant was subjected to GSH and ROS quantification using Glutathione assay kit (Sigma, USA) and OxiSelect ROS assay kit (Cell Biolabs, USA) according to manufacturers’ protocol.
(§7) For GSH quantification, 10 μL of cell lysate supernatant was added with 150 μL of working solution (1.5 mg/mL DTNB solution, 6 units/mL glutathione reductase and 1× assay buffer), incubated for 5 min and added with 50 μL of NADPH solution (0.16 mg/mL). The absorbance was read at a wavelength of 412 nm by ELISA plate reader (Bio-Tek instrument, USA) for every minute in duration of 5 min. For intracellular ROS quantification, supernatant was added with 10 μM DCFH-DA for 30 min at 37 °C. Then, the fluorescence intensity of DCFH-DA was measured using microplate fluorometer (Thermo Scientific, USA) with a 485/538 nm filter. Fold change of GSH and ROS was calculated by dividing absorbance or fluorescence intensity of DK1 treated MCF-7 with untreated control MCF-7.

[13] = system: HL-60 cells; experiment: MTT cell viability assay, HL-60; assay type: cell-based; settings: Homo sapiens, HL-60, MTT
Description: as §1, §2, §3

[14] = system: PLK1, p21 and WEE-1 expression in MCF-7 cells; experiment: qRT-PCR of cell cycle related genes; settings: MCF-7, 25 µM, qRT-PCR, p < 0.05
[15] = system: cytochrome c in MCF-7 cells; experiment: Cytochrome c ELISA; assay type: cell-based, human; settings: MCF-7, 25 µM
Description: as §5

[16] = system: GSH in MCF-7 cells; experiment: Intracellular glutathione (GSH) quantification; assay type: cell-based, human; settings: MCF-7, 25 µM
Description: as §6, §7

## COc1ccc(/C=C/C(=O)c2c(O)cc(OC)cc2OC)cc1 [flavokawain A]
[1]
  SI value: 3.78

## O=C(/C=C(\O)c1ccccc1)c1ccccc1O [DK1, (Z)-3-hydroxy-1-(2-hydroxyphenyl)-3-phenylprop-2-en-1-one]
[2]; 24 h
  IC50: 96.8 ± 4.87 µM
[2]; 48 h
  IC50: 33.3 ± 3.5 µM
[2]; 72 h
  IC50: 25 ± 3.71 µM
[2]; IC50 MCF-10A / IC50 MCF-7, 24 h
  Selective index of MCF-10A/MCF-7: >2.17
[2]; IC50 MCF-10A / IC50 MCF-7, 48 h
  Selective index of MCF-10A/MCF-7: 3.75
[2]; IC50 MCF-10A / IC50 MCF-7, 72 h
  Selective index of MCF-10A/MCF-7: 4.17
[2]; MCF-7, overall statement
  SI values: higher than 2
[3]
  CDC2 protein level: reduction
  phospho-CDC2 (Tyr15) protein level: accumulation
[4]; 24 h
  IC50: > 208 µM
[4]; 48 h
  IC50: 126 ± 3.67 µM
[4]; 72 h
  IC50: 104 ± 5.21 µM
[5]
  cells undergone apoptosis: ~ 12.5%
  cells undergone late apoptosis/necrosis: ~ 31%
[6]; 48 h
  promotion of active caspase 9 compared to control: ~ 1.9 fold
[6]; 72 h
  promotion of active caspase 9 compared to control: ~ 2.4 fold
[7]
  early apoptosis: ~ 14%
  late apoptosis: ~ 39%
[8]; 24 h
  IC50: > 150 µM
[8]; 48 h
  IC50: 138 ± 4.13 µM
[8]; 72 h
  IC50: 64.2 ± 3.12 µM
[9]; 48 h
  promotion of p53 protein compared to control: ~ 1.6 fold
[9]; 72 h
  promotion of p53 protein compared to control: ~ 2.0 fold
[10]; 24 h
  IC50: 104 ± 5.23 µM
[10]; 48 h
  IC50: 45.8 ± 4.66 µM
[10]; 72 h
  IC50: 37.5 ± 4.82 µM
[10]; IC50 MCF-10A / IC50 MDA-MB-231, 24 h
  Selective index of MCF-10A/MDA: >2.00
[10]; IC50 MCF-10A / IC50 MDA-MB-231, 48 h
  Selective index of MCF-10A/MDA: 2.72
[10]; IC50 MCF-10A / IC50 MDA-MB-231, 72 h
  Selective index of MCF-10A/MDA: 2.77
[10]; MDA-MB-231, overall statement
  SI values: higher than 2
[11]; 24 h (control ~18%)
  percentage of cell population in G2/M phase: ~ 25%
[11]; 48 h (control ~18%)
  percentage of cell population in G2/M phase: ~ 26%
[11]; 72 h (control ~18%)
  percentage of cell population in G2/M phase: ~ 31%
[12]; 48 h
  generation of ROS compared to control: ~ 1.9 fold
[12]; 72 h
  generation of ROS compared to control: ~ 2.6 fold
[13]; 24 h
  IC50: 138 ± 2.16 µM
[13]; 48 h
  IC50: 124 ± 3.27 µM
[13]; 72 h
  IC50: 73.4 ± 2.65 µM
[14]
  expression of PLK1 compared to control: downregulated
  expression of WEE-1 compared to control: enhanced
  expression of p21 compared to control: enhanced
[15]; 48 h
  promotion of cytochrome c compared to control: ~ 2.1 fold
[15]; 72 h
  promotion of cytochrome c compared to control: ~ 2.8 fold
[16]; 48 h
  reduction of GSH level compared to control: ~ 2.2 fold
[16]; 72 h
  reduction of GSH level compared to control: ~ 3.3 fold
